The test system of one test is HEP 3B tumors. Put plainly: HEP 3B experimental tumor growth in mice. The format is in vivo. The method, then: (§1) (A) Experimental tumors were generated from the HCC cancer cell line, HEP 3B and PLC/RF5 and the NTSR1-overexpressing subclones. Comparative growth curves of HEP 3B, HEP-R1a, PLC/RF5, PLC/R1 in 8, 7, 10 and 7 mice, respectively. Tumor volumes were measured twice a week. (B) Tumor weight at 42 days. (C and D) Experimental tumors were generated from HEP 3B or HEP-R1a in the different mice. When the tumor size reached 100 mm3, mice were randomly distributed in 2 groups. A control group force feed with H2O, or with 1 mg/kg SR 48692 every day. (E) Typical IHC performed on paraffin sections for NTS, NTSR1 EGFR and phosphorylated EGFR labelling, 200× magnification.
(§2) Experimental tumors were generated from HEP 3B (A) and HEP-R1a (B) in the same mice. Mice were treated per os with 75 mg/kg erlotinib every day for 22 days. Tumor size was measured every two days. Result shown is the ratio of tumor compare to day 1. (C) The doubling time was subsequently calculated using the following formula: doubling time=t*((LN(2))/(LN(VOL F/VOL I)), at day 22.
(§3) Experimental tumors were generated from HEP 3B (D) or HEP-R1a (E) in the different mice. When the tumor size reached 100 mm^3, mice were randomly distributed in 2 groups. A control group force feed with H2O, and the treated group, force feed every day with […] sorafenib. Result shown is the ratio of tumor compare to day 1. (F) Tumor weight at day 15.
(§4) To determine the contribution of NTS/NTSR1 complex on tumor progression, mice were implanted with HCC cell lines and NTSR1 overexpressing clones. For HEP3B cells the tumors were measurable 21 days after cells injection. In contrast, the tumor burden for both clones overexpressing NTSR1 was measurable at day 13. The growth rate at day 42 was 2.9 and 2.08 fold higher for HEP-R1a and PLC-R1a as compared to respective parental cells, respectively, (FIG. 7A). As shown in FIG. 7B the tumor weights were in correspondence with the tumor size 4.3 and 2.8 fold higher for HEP-R1a and PLC-R1a as compared to their respective parental cells, respectively. To confirm the contribution of NTS/NSTR1 complex in tumor growth, animals were treated with a specific NTSR1 antagonist, the SR 48692. When tumors reach 100 mm3, the groups were treated per os with H2O, or 1 mg/kg SR 48692, respectively. […] The final tumor size of HEP-R1a tumors treated with SR 48692 was 441.9±39.85 mm^3, and was very similar to the untreated HEP 3B tumors 516.3±139.72 mm^3.
As shown above, NTSR1 activation induced a sustained EGFR activation, which we believe, acts as EGFR driver mutation (FIG. 4). To explore this hypothesis, the HCC cell lines HEP 3B and HEP-R1a were xenografted on the same mice. The mice were randomly distributed in two groups based on the size of the HEP 3B tumors. Since HEP-R1a tumors grow faster than HEP 3B tumors, HEP 3B cells were injected a few days before HEP-R1a cells. In the control group, the average HEP3B tumor size was 168.2±38.1 mm3 and the HEP-R1a tumor size was 79.7±16.4 mm3 at day 1. The treated group carried HEP 3B tumors of 164.7±31.2 mm3 and HEP-R1a tumors of 87.2±19.13 mm3 at day 1. Mice were daily treated, per os, with 75 mg/kg erlotinib or H2O for 22 days. […] Over the period of the treatment, the doubling time of HEP-R1a tumors was 7.0±0.55 days and 10.1±1.1 (p=0.0016) for control and treated with erlotinib, respectively. For the HEP 3B tumors, the doubling time was similar 7.8±0.52 and 7.7±0.84 days for control and treated group respectively (FIG. 8 C). […]

For test [1], the system named is cells overexpressing NTSR1 versus HEP 3B cells. Put plainly: Cellular proliferation test. It counts as cell-based. The following applies: cells overexpressing NTSR1 compared with HEP 3B cells. The method, then:
(§5) (A) Cellular proliferation performed on HEP 3B and HEP-R1b cells. Results are the means of 3 independents experiments and expressed as percentage of respective control. (B) Clonogenic assay performed with HEP 3B and HEP-R1b cells treated with different dose of erlotinib. Cells were incubated for two weeks with the treatment. Results are the means of 6 independents experiments and expressed as percentage of respective control. (C) Cellular proliferation performed on HEP 3B and HEP-R1a cells. Results are the means of 6 independents experiments. (D) Clonogenic assay performed with HEP 3B and HEP-R1a cells treated with different dose of sorafenib. Cells were incubated for two weeks with the treatment. Results are the means of 6 independents experiments.
(§6) We confirmed the erlotinib and sorafenib responses in cells overexpressing NTSR1 in clonogenic assay. […] In contrast, HEP 3B cells are not sensitive either to erlotinib or sorafenib.

In a further test the test system is HEP-R1a tumors. Put plainly: HEP-R1a experimental tumor growth in mice. It counts as in vivo. Here is the method: as §1, §2, §3, §4
As shown above, NTSR1 activation induced a sustained EGFR activation, which we believe, acts as EGFR driver mutation (FIG. 4). To explore this hypothesis, the HCC cell lines HEP 3B and HEP-R1a were xenografted on the same mice. The mice were randomly distributed in two groups based on the size of the HEP 3B tumors. Since HEP-R1a tumors grow faster than HEP 3B tumors, HEP 3B cells were injected a few days before HEP-R1a cells. In the control group, the average HEP3B tumor size was 168.2±38.1 mm3 and the HEP-R1a tumor size was 79.7±16.4 mm3 at day 1. The treated group carried HEP 3B tumors of 164.7±31.2 mm3 and HEP-R1a tumors of 87.2±19.13 mm3 at day 1. Mice were daily treated, per os, with 75 mg/kg erlotinib or H2O for 22 days. […] Over the period of the treatment, the doubling time of HEP-R1a tumors was 7.0±0.55 days and 10.1±1.1 (p=0.0016) for control and treated with erlotinib, respectively. For the HEP 3B tumors, the doubling time was similar 7.8±0.52 and 7.7±0.84 days for control and treated group respectively (FIG. 8 C).
Sorafenib is a known multikinase inhibitor targeting Raf/MEK/ERK signaling at the level of Raf kinase, angiogenesis, VEGFR-2/-3, and PDGFR-β tyrosine kinase. Sorafenib is currently used to treat HCC with some success. In order to evaluate the autocrine NTS regulation on sorafenib responses, each HEP 3B or HEP-R1a cells were injected to four groups of mice. When tumors reach 100 mm3, the groups were treated per os with H2O, 30 mg/kg sorafenib for 15 days, respectively. […]

Test [2] has as its system HEP-R1b and HEP-R1a cells. The test is described as follows: Clonogenic assay, NTSR1 overexpressing clones. It counts as cell-based. The note with it: two weeks. The method, then: as §5, §6
Another test concerns HEP 3B cells. The test is described as follows: Clonogenic assay, HEP 3B cells. The format is cell-based. The note with it: two weeks. Here is the method:
as §5, §6

The subject of another test is advanced HCC. The note with it: patients with advanced HCC and well-compensated liver function, oral; cited from earlier work.
Test [3] relates to phosphorylated-EGFR in HEP 3B and PLC/RF5 cells. Put plainly: Western blot of Tyr 1173 phosphorylated EGFR in HCC cell lines. It counts as cell-based. The following applies: both cell lines, SB216763 treatment. The method, then: (§7) (A) Typical immunocytochemistry labeling for NTSR1 (Top) and EGFR (Bottom) in PLC/RF5 and HEP 3B cells treated or not with 1 μM SB216763 or 5 μM SR4892 or both for 48 h. (B and C) Representative western blot analyses of Tyr 1173 phosphorylated EGFR, EGFR, and actin of HEP 3B and PLC/RF5 treated as indicate above.
In both cell lines, phosphorylated-EGFR was increased under SB216763 treatment this increase was abolished when SR 48692 was added to the treatment.
In general terms: In western blotting, separated proteins are transferred to a membrane and probed.

The subject of test [4] is EGFR expression in PLC/PRF5 and HEP3B cells. The test is described as follows: EGFR immunocytochemistry labeling in HCC cell lines. The format is cell-based. The note with it: PLC/PRF5 and HEP3B, 48 h; 1 μM SB216763 or 5 μM SR48692. The method, then: as §7
(§8) It was previously shown that the NTS/NTSR1 complex potentiates EGF signaling in liver, colon, prostate, lung, and breast cancer. We investigated the possible relation between NTSR1 expression and EGFR expression and activation. […] Treatment with SR48692, a specific NTSR1 antagonist, decreased the expression of EGFR, whereas NTSR1 expression was not altered. When the combined treatment with SB216763 and SR48692 is used, the effect of SB216763 on EFGR expression is limited by the presence of the NTSR1 antagonist (FIG. 5A).

In test [5] the test system is NTSR1 expression in HEP 3B and PLC/PRF5 cells. The test is described as follows: NTSR1 immunocytochemistry labeling in HCC cell lines. The format is cell-based. The method, then:
(§9) (A) NTS, NTSR2, NTSR3, and NTSR1 transcript analysis from 400 ng of HuH7, HEP 3B, and PLC/RF5, total RNA. NTSR1 A and NTSR1 B show the amplicon from two different set of primers. (B) Typical immunocytochemistry labeling for NTSR1 and DAPI in HEP 3B and PLC/RF5 cells. Cells were seeded on glass slides, grown for 48 h, and immunocytochemistry was performed as described in the Materials and Methods section. (C) NTSR1 transcript analysis from HuH7, HEP 3B and PLC/RF5 of total RNA from cells treated or not with […] LiCl for 6 h. (D) Typical immunocytochemistry NTSR1 labeling of HEP 3B and PLC/RF5 cells treated with 1 μM SB 216763 for 6 h.
as §7
(§10) Among the three cell lines studied, only PLC/PRF5 cells presented a dysregulation in the beta catenin pathway with a deletion in Axin (E4/−). […] We previously hypothesized that NTSR1 expression was correlated with deregulated wnt/beta catenin pathways. To evaluate this hypothesis, we forced the cellular and nuclear relocation of β-catenin in these cells lines with the LiCl, and an inhibitor of the glycogen synthase kinase (GSK) 3β, the SB216763. LiCl and SB216763 are known to decrease the degradation of β-catenin by inhibiting GSK-3 and promoting the accumulation of β-catenin in the cytoplasm of liver cancer cells.
as §8

Test [6] deals with NTSR1 transcription in HuH7, HEP 3B and PLC/PRF5 cells. The test is described as follows: NTSR1 transcript analysis in HCC cell lines. The format is cell-based. The note with it: three HCC cell lines, 20 nM LiCl for 6 h. Here is the method: as §9, §10
[7] abbreviates: 30 mg/kg sorafenib per os, 15 days.

Consider four compounds from US20180134788A1, “Methods and Pharmaceutical Compositions (NTSR1 Inhibitors) for the Treatment of Hepatocellular Carcinomas” (INSERM (Institut National de la Sante et de la Recherche …, priority 2015, published 2018).

Structures are written as SMILES.

For the compound `C#Cc1cccc(Nc2ncnc3cc(OCCOC)c(OCCOC)cc23)c1` [erlotinib], the tumor growth response result in the test with HEP 3B tumors (HEP3B tumors, 75 mg/kg erlotinib per os daily, 22 days) is “did not respond”. Further, the tumor doubling time is 7.7 ± 0.84 days with HEP 3B tumors (HEP 3B tumors, 75 mg/kg erlotinib, day 22) and 10.1 ± 1.1 days with HEP-R1a tumors (75 mg/kg erlotinib, day 22). The “sensitivity in cellular proliferation test” value in [1] was “more sensitive”. The tumor growth rate entry with HEP-R1a tumors (75 mg/kg erlotinib per os daily, 22 days) is given as “drastically affected”. Moreover, the number of colonies entry in test [2] (HEP-R1b cells exposed to erlotinib) is reported as “markedly reduced”. Moreover, in the test on HEP 3B cells, the “sensitivity in clonogenic assay” value is given as “not sensitive”.
Regarding `CNC(=O)c1cc(Oc2ccc(NC(=O)Nc3ccc(Cl)c(C(F)(F)F)c3)cc2)ccn1` [sorafenib], the survival entry in the test with advanced HCC is “prolong survival”. In the test on HEP 3B tumors (HEP 3B tumors, 30 mg/kg sorafenib per os, 15 days), the tumor growth rate result is “no influence”. For the same compound, the “tumor weight versus control” value in the test on HEP 3B tumors (HEP 3B tumors, sorafenib treated group, end of treatment) is reported as “approximately equal”. The “sensitivity in cellular proliferation test” value in [1] is listed as “more sensitive”. In the test with HEP-R1a tumors (setting [7]), the final tumor size came to 400.3±59.9 mm3 and the tumor growth rate entry is “inhibited by two fold”. This compound displayed a tumor weight in the test with HEP-R1a tumors (sorafenib treated group, end of treatment (day 15)) of 0.650 ± 0.080 g. Also, the number of colonies entry in [2] (HEP-R1a cells exposed to sorafenib) is listed as “markedly reduced”. The “sensitivity in clonogenic assay” value with HEP 3B cells is “not sensitive”.
Regarding `Cn1cc(C2=C(c3ccc(Cl)cc3Cl)C(=O)NC2=O)c2ccccc21` [SB216763], in test [3], the phosphorylated-EGFR entry was “increased”. For the same compound, the EGFR expression result in [4] is “increase”. The NTSR1 immunolabeling signal result in test [5] (HEP3B and PLC/PRF5 cells, 1 μM SB 216763 for 6 h) is given as “remarkably amplified”. Moreover, the NTSR1 expression entry in test [5] (PLC/PRF5 and HEP3B, 48 h, 1 μM SB216763 or 5 μM SR48692) was “increase”.
As for `[Cl-].[Li+]` [LiCl], in test [6], the NTSR1 transcription result is “upregulated”.
